From PMC4006873 (Biochemistry, 2013)
Peptide text beside a SMILES is read from it. * marks the point of attachment. X1 = C[C@@H]1C[C@H]2[C@@H]3CCC4=CC(=O)C=C[C@]4(C)[C@@]3(F)[C@@H](O)C[C@]2(C)[C@@]1(O)C(=O)CSCCC(=O)*

Columns and labels:
GR★-GFP [1] = biological target: T1, GR★-GFP (Homo sapiens, UniProt P04150, C638G); assay: High-content imaging of GIGT in stably transfected Saos-2; format: cell-based; settings: Saos-2(GIGT) cells, 30 min; for Z′-factor of GIGT assay: 1 μM vs untreated
T1 sequence (P04150 1-777 C638G): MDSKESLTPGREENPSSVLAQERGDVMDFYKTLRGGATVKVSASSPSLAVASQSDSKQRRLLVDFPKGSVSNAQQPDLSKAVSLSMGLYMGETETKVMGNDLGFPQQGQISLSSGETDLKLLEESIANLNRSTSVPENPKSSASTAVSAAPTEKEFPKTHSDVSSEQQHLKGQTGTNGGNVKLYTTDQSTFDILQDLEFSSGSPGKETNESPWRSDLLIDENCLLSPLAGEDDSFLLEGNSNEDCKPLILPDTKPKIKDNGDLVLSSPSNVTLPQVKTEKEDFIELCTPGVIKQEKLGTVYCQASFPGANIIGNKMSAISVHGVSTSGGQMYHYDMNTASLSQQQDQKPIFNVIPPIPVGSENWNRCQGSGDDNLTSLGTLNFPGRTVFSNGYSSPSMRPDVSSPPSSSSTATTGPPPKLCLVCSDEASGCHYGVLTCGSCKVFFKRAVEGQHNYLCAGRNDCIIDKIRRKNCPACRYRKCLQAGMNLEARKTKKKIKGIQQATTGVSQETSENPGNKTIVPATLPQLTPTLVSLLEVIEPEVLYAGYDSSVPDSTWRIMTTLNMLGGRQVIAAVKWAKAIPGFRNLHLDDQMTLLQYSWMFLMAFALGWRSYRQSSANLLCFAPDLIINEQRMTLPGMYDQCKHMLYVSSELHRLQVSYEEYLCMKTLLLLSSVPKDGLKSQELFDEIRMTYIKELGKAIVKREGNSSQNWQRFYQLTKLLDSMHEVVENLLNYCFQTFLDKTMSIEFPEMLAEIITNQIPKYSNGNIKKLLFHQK

Gal4-GR★-VP16 = biological target: T2, Gal4-GR★-VP16 (Homo sapiens, UniProt P04150, C638G); assay: GIGI in cell lysates, stably transfected U2OS; settings: U2OS(GIGI) cells; for Z′-factor of GIGI assay: 1 μM vs untreated, 24 h, n = 150
T2 sequence (P04150 524-758 C638G): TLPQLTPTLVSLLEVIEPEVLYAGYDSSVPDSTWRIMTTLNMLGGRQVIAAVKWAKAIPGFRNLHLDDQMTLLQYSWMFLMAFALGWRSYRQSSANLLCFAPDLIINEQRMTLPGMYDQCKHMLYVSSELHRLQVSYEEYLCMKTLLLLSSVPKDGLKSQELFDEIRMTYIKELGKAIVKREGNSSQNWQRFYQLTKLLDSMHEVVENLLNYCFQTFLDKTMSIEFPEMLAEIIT

GR★-GFP [2] = biological target: T1, GR★-GFP; assay: GIGT nuclear translocation, transiently transfected cells expressing GR★-GFP; format: cell-based; settings: HeLa cells expressing GR★-GFP, 500 nM, 30 min
rat C656G GR = settings: read-out: equilibrium dissociation constant (Kd), in vitro; cited from earlier work

SMILES | Z′-factor of GIGT assay (GR★-GFP [1]) | Z′-factor of GIGI assay (Gal4-GR★-VP16) | translocation ratio (TR) (GR★-GFP [2]) | translocation ratio (TR) (GR★-GFP [1]; 1 μM) | eGFP expression after treatment and cell lysis (Gal4-GR★-VP16; 1 μM) | Kd (rat C656G GR)
CC(C)C[C@H](NC(=O)[C@H](Cc1c[nH]cn1)NC(=O)[C@H](CCCNC(=N)N)NC(=O)[C@H](CO)NC(=O)[C@H](CC(C)C)NC(=O)[C@@H](NC(=O)[C@H](Cc1ccccc1)NC(=O)[C@H](C)NC(=O)[C@H](CCCCN)NC(=O)CNC(=O)[C@H](CS)NC(=O)[C@@H](NC(=O)[C@H](CC(N)=O)NC(=O)[C@H](CS)NC(=O)[C@H](CO)NC(=O)[C@H](Cc1ccc(O)cc1)NC(=O)[C@@H](N)Cc1c[nH]c2ccccc12)C(C)C)C(C)C)C(=O)N[C@@H](CC(N)=O)C(=O)N[C@@H](CCCNC(=N)N)C(=O)N[C@@H](Cc1c[nH]cn1)C(=O)N[C@@H](CC(C)C)C(=O)N[C@@H](CCCNC(=N)N)C(=O)N[C@H](C(=O)N[C@@H](Cc1c[nH]cn1)C(=O)N[C@@H](CCCNC(=N)N)C(=O)N[C@@H](CCCNC(=N)N)C(=O)N[C@@H](C)C(=O)N[C@H](C(=O)N[C@@H](CCCCNC(=O)CCSCC(=O)[C@@]1(O)[C@H](C)C[C@H]2[C@@H]3CCC4=CC(=O)C=C[C@]4(C)[C@@]3(F)[C@@H](O)C[C@@]21C)C(N)=O)[C@@H](C)O)C(C)C [ZF5.3^Dex] (H-WYSCNVCGKAFVLSRHLNRHLRVHRRATK(X1)-NH2; N-terminus and C-terminus assumed) | 0.56 | 0.42 | – | – | – | –
CC[C@H](C)[C@H](NC(=O)[C@H](CC(C)C)NC(=O)[C@H](CC(=O)O)NC(=O)[C@H](CCCNC(=N)N)NC(=O)[C@@H](NC(=O)[C@@H]1CCCN1C(=O)[C@H](C)NC(=O)[C@H](CC(=O)O)NC(=O)[C@H](CC(=O)O)NC(=O)CNC(=O)[C@@H]1CCCN1C(=O)[C@H](Cc1ccc(O)cc1)NC(=O)[C@@H](NC(=O)[C@@H]1CCCN1C(=O)[C@H](CCC(N)=O)NC(=O)[C@H](CO)NC(=O)[C@@H]1CCCN1C(=O)CN)[C@@H](C)O)C(C)C)C(=O)N[C@@H](CCCNC(=N)N)C(=O)N[C@@H](Cc1ccccc1)C(=O)N[C@@H](Cc1ccc(O)cc1)C(=O)N[C@@H](CCCNC(=N)N)C(=O)N[C@@H](CC(=O)O)C(=O)N[C@@H](CC(C)C)C(=O)N[C@@H](CCCNC(=N)N)C(=O)N[C@@H](CCCNC(=N)N)C(=O)N[C@@H](Cc1ccc(O)cc1)C(=O)N[C@@H](CC(C)C)C(=O)N[C@@H](CC(N)=O)C(=O)N[C@H](C(=O)N[C@H](C(=O)N[C@H](C(=O)N[C@@H](CCCNC(=N)N)C(=O)N[C@@H](Cc1c[nH]cn1)C(=O)N[C@@H](CCCNC(=N)N)C(=O)N[C@@H](Cc1ccc(O)cc1)C(=O)N[C@@H](CCCCNC(=O)CCSCC(=O)[C@@]1(O)[C@H](C)C[C@H]2[C@@H]3CCC4=CC(=O)C=C[C@]4(C)[C@@]3(F)[C@@H](O)C[C@@]21C)C(N)=O)[C@@H](C)O)C(C)C)C(C)C [5.3^Dex] (H-GPSQPTYPGDDAPVRDLIRFYRDLRRYLNVVTRHRYK(X1)-NH2; N-terminus and C-terminus assumed) | 0.54 | 0.56 | 2.79 ± 0.39 | 4.01 ± 0.30 | significant eGFP expression | –
C[C@@H]1C[C@H]2[C@@H]3CCC4=CC(=O)C=C[C@]4(C)[C@@]3(F)[C@@H](O)C[C@]2(C)[C@@]1(O)C(=O)CO [Dex, dexamethasone] | – | – | – | – | – | 0.55 nM
